Experiment: Dynamic Vapor Sorption/Desorption (DVS)
Format: physicochemical
Details: FIG. 4

SMILES: CC(C)CCC[C@@H](C)[C@H]1CC[C@H]2[C@@H]3CC=C4C[C@@H](OS(=O)(=O)[O-])CC[C@]4(C)[C@H]3CC[C@]12C.[Na+] [Form F, sodium cholesteryl sulfate]
- weight change upon desorption (DVS) (desorption 95% to 5% relative humidity): 20.8%
- weight gain on sorption (DVS) (ramping from 5% to 95% relative humidity, 10% RH increments, nitrogen purge): 23.8%
- DVS sorption profile (onset of weight gain) (ramping from 5% to 95% relative humidity): little weight gain until 55% relative humidity

From patent US20230365619A1, “CRYSTALLINE SODIUM CHOLESTERYL SULFATE” (Durect Corporation, priority 2020, published 2023)
